{"source": "patent US20070249590A1", "about": "“Substituted indolo[2,3-a]pyrrolo[3,4-c]carbazole compounds useful in treating kinase disorders” (priority 2005, published 2007)", "data": [{"molecular_target": "T1, JAK3 (JH1 and JH2 domain) (Homo sapiens, UniProt P52333)", "T1 sequence (P52333 521-1111 limits assumed)": "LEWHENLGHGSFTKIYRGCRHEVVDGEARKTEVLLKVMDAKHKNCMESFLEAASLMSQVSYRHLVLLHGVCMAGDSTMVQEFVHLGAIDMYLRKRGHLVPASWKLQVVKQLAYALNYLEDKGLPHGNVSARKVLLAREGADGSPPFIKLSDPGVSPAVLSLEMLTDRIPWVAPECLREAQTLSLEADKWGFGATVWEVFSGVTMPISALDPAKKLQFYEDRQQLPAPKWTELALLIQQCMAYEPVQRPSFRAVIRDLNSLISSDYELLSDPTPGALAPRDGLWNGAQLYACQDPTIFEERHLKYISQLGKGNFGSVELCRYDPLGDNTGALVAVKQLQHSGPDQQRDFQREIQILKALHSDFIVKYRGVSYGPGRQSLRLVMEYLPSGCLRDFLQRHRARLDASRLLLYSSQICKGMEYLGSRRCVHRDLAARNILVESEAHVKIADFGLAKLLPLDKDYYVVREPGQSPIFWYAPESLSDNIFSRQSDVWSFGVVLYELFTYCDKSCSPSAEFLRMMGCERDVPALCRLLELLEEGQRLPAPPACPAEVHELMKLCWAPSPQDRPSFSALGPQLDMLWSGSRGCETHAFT", "experiment": "JAK3 Kinase Assay (ELISA of peptide substrate phosphorylation)", "type": "biochemical", "conditions": "purified JAK3 enzyme, 10 μM ATP, biotinylated peptide substrate, 1 hour at room temperature", "protocol": "JAK3 enzyme activity was assayed relative to enzyme phosphorylation using the method described herein.\nSf21 cells derived from the ovarian tissue of the fall armyworm Spodotera frugiperda were obtained from Pharmingen (San Diego, Calif.) and maintained at a temperature of about 26-28° C. in 1 l Bellco spinner flasks at 60-90 rpm. Cell viability was maintained at 95-100%, as determined by a tryptan blue dye exclusion test.\nSf21 cells were infected with a baculovirus expression vector for JAK3 (JH1 and JH2 domain). After 48 hours of infection, cells were harvested and lysed in Tris-saline (pH 7.6) containing 2% NP-40 and a combination of protease inhibitors (Aprotinin, Pepstatin A, Pefabloc, E-64, Leupeptin, and Benzamidine) on ice for 45 minutes.\nThe JAK3 enzyme was purified from the lysate using glutathione sepharose beads and the enzyme activity was assessed in Costar flat bottom EIA/RIA 96 well plates. The plates were coated with Neutravidin (110 μL) (Pierce Neutravidin Biotin-binding Protein 31000; 1 mg/mL 1:100) diluted in PBS for 1 hour at room temperature. The plates were washed with PBS-0.1% Tween (3 times) to remove unbound Neutravidin, then 1% BSA (150 NIL) in PBS was added to each well to block non-specific binding. The plates was incubated for 1 hour at room temperature and stored at −80° C. until use.\nJAK3 enzyme solution (48 μL) in 1.25×TK buffer (62.5 mM HEPES pH 7.5, 12.5 mM MgCl2) containing DTT (42 mM) (Sigma, St. Louis, Mo.) was added to each well of a polypropylene 96 well plate.\nA test compound (5 μL) diluted in DMSO (48 μL) and biotinylated peptide enzyme substrate (5 μg diluted in TK buffer containing 10 μM ATP) were added to each well using the double dispense feature of a multichannel electronic biohit. Control wells received DMSO vehicle (5 μL). The contents of the wells were mixed for approximately 8 seconds using a multitube vortexer and the reaction mixture was incubated for 1 hour at room temperature.\nAfter incubation, an aliquot of reaction mixture (90 μL) was transferred into a washed Neutravidin coated plate. The plate was incubated for 15 minutes at room temperature and washed 3 times with PBS-T. PY99 anti-phosphotyrosine antibody (100 μL/well) (Santa Cruz #sc-7020HRP diluted 1:6000 in 1× antibody buffer) was added into each well and the plate was incubated for 40 minutes at room temperature. The antibody buffer contained 10% BSA, 100 mM Tris (pH 7.5), 1M NaCl and 1% Tween 20. The plate washed 3 times with PBS-T, then TMB (100 pLXSigma, St. Louis, Mo.) was added to the each well. The plate was incubated for another 40 mins at room temperature in the dark. The reaction was stopped by the addition of 1M H2SO4 (50 μL/well) and the optical density was read at 450/650 nm.\nTest compounds were assayed in triplicate at 16 concentrations at half-log dilutions starting at 200 μM. A maximum and minimum signal for the assay was determined on each plate. The percent inhibition of a test compound was calculated according to the formula [formula]\nFor a series of test concentrations, the IC50 was derived by graphing percent inhibition against the log of the concentrations tested for a given compound. For those compounds without an IC50, the percent inhibition results are shown at a test concentration of 1 μM.", "units": {"IC50": "nM"}, "values": [{"smiles": "O=C1NCc2c1c1c3cc(Br)ccc3n3c1c1c2c2cc(CN4CCOCC4)ccc2n1CC(CO)C3", "note": "(stereo not shown) [Cpd 208, 3-bromo-9-(morpholin-4-ylmethyl)-12,13-(2-hydroxymethyl-propan-1,3-yl)-6,7,12,13-tetrahydro-5-oxo-5H-indolo[2,3-a]pyrrolo[3,4-c]carbazole]", "IC50": 3130}, {"smiles": "CN1CCC(N(C)C(=O)OC2Cn3c4ccccc4c4c5c(c6c7ccccc7n(c6c43)CC2O)C(=O)NC5=O)C1", "note": "(stereo not shown) [Cpd 108, 12,13-(2-{[N-methyl-N-(1-methyl-pyrrolidin-3-yl)]carbamoyloxy}-3-hydroxy-butan-1,4-yl)-12,13-dihydro-5,7-dioxo-6H-indolo[2,3-a]pyrrolo[3,4-c]carbazole]", "IC50": 46}, {"smiles": "O=C(NCc1ccc2c(c1)OCO2)OC1CCn2c3ccccc3c3c4c(c5c6ccccc6n(c5c32)C1)C(=O)NC4=O", "note": "(stereo not shown) [Cpd 46, 12,13-{2-[(benzo[1,3]dioxol-5-yl-methyl)carbamoyloxy]-butan-1,4-yl}-12,13-dihydro-5,7-dioxo-6H-indolo[2,3-a]pyrrolo[3,4-c]carbazole]", "IC50": 66}, {"smiles": "O=C1NCc2c1c1c3cc(CN4CCOCC4)ccc3n3c1c1c2c2cc(CN4CCOCC4)ccc2n1CC(CO)C3", "note": "(stereo not shown) [Cpd 214, 3,9-bis-(morpholin-4-ylmethyl)-12,13-(2-hydroxymethyl-propan-1,3-yl)-6,7,12,13-tetrahydro-5-oxo-5H-indolo[2,3-a]pyrrolo[3,4-c]carbazole]", "IC50": "> 50000"}, {"smiles": "O=C1NCc2c1c1c3ccccc3n3c1c1c2c2ccccc2n1CCC(O)CC3", "note": "(stereo not shown) [Cpd 28, 12,13-(3-hydroxy-pentan-1,5-yl)-6,7,12,13-tetrahydro-5-oxo-5H-indolo[2,3-a]pyrrolo[3,4-c]carbazole]", "IC50": 58}, {"smiles": "O=C1NC(=O)c2c1c1c3cc(-c4cccnc4)ccc3n3c1c1c2c2ccccc2n1CC(O)CC3", "note": "(stereo not shown) [Cpd 32, 3-pyridin-3-yl-12,13-(2-hydroxy-butan-1,4-yl)-12,13-dihydro-5,7-dioxo-6H-indolo[2,3-a]pyrrolo[3,4-c]carbazole]", "IC50": 35}, {"smiles": "O=C1NC(=O)c2c1c1c3ccccc3n3c1c1c2c2ccccc2n1CC(OC(=O)N1CCN(CCc2ccccc2)CC1)C(O)C3", "note": "(stereo not shown) [Cpd 110, 12,13-(2-{[4-(2-phenyl-ethyl)piperazin-1-yl]carbamoyloxy}-3-hydroxy-butan-1,4-yl)-12,13-dihydro-5,7-dioxo-6H-indolo[2,3-a]pyrrolo[3,4-c]carbazole]", "IC50": 916}, {"smiles": "COc1ccccc1N1CCN(C(=O)OC2CCn3c4ccccc4c4c5c(c6c7ccccc7n(c6c43)C2)C(=O)NC5=O)CC1", "note": "(stereo not shown) [Cpd 70, 12,13-(2-{[4-(2-methoxy-phenyl)piperazin-1-yl]carbonyloxy}-butan-1,4-yl)-12,13-dihydro-5,7-dioxo-6H-indolo[2,3-a]pyrrolo[3,4-c]carbazole]", "IC50": 71}, {"smiles": "O=C1NC(=O)c2c1c1c3ccccc3n3c1c1c2c2ccccc2n1CC(OC(=O)N1CCCCC1)C(O)C3", "note": "(stereo not shown) [Cpd 99, 12,13-[2-(piperidin-1-yl-carbonyloxy)-3-hydroxy-butan-1,4-yl]-12,13-dihydro-5,7-dioxo-6H-indolo[2,3-a]pyrrolo[3,4-c]carbazole]", "IC50": 184}, {"smiles": "C=C1Cn2c3ccccc3c3c4c(c5c6ccccc6n(c5c32)C1)C(=O)NC4", "note": "[Cpd 22, 12,13-(2-methylene-propan-1,3-yl)-6,7,12,13-tetrahydro-5-oxo-5H-indolo[2,3-a]pyrrolo[3,4-c]carbazole]", "IC50": 72}, {"smiles": "O=C1NCc2c1c1c3cc(/C=N/NC4=NCCN4)ccc3n3c1c1c2c2ccccc2n1CC(O)C(O)C3", "note": "(stereo not shown) [Cpd 200, 3-[(4,5-dihydro-1H-imidazol-2-yl)hydrazomethylene]-12,13-(2,3-dihydroxy-butan-1,4-yl)-6,7,12,13-tetrahydro-5-oxo-5H-indolo[2,3-a]pyrrolo[3,4-c]carbazole]", "IC50": 19}, {"smiles": "CN(C)CCCN1CCN(C(=O)OC2CCn3c4ccccc4c4c5c(c6c7ccccc7n(c6c43)C2)C(=O)NC5=O)CC1", "note": "(stereo not shown) [Cpd 68, 12,13-(2-{[4-(3-dimethylamino-prop-1-yl)piperazin-1-yl]carbonyloxy}-butan-1,4-yl)-12,13-dihydro-5,7-dioxo-6H-indolo[2,3-a]pyrrolo[3,4-c]carbazole]", "IC50": 433}, {"smiles": "O=C(NC1CCNCC1)OCC1(O)Cn2c3ccccc3c3c4c(c5c6ccccc6n(c5c32)C1)C(=O)NC4", "note": "(stereo not shown) [Cpd 178, 12,13-[2-hydroxy-2-(piperidin-4-yl-carbamoyloxymethyl)-propan-1,3-yl]-6,7,12,13-tetrahydro-5-oxo-5H-indolo[2,3-a]pyrrolo[3,4-c]carbazole]", "IC50": 154}, {"smiles": "O=C1NCc2c1c1c3cc(CN4CCOCC4)ccc3n3c1c1c2c2ccccc2n1CC(O)C(O)C3", "note": "(stereo not shown) [Cpd 194, 3-(morpholin-4-ylmethyl)-12,13-(2,3-dihydroxy-butan-1,4-yl)-6,7,12,13-tetrahydro-5-oxo-5H-indolo[2,3-a]pyrrolo[3,4-c]carbazole]", "IC50": 503}, {"smiles": "O=C(NCCN1CCCC1)OC1Cn2c3ccccc3c3c4c(c5c6ccccc6n(c5c32)CC1O)C(=O)NC4=O", "note": "(stereo not shown) [Cpd 92, 12,13-{2-[(2-pyrrolidin-1-yl-ethyl)carbamoyloxy]-3-hydroxy-butan-1,4-yl}-12,13-dihydro-5,7-dioxo-6H-indolo[2,3-a]pyrrolo[3,4-c]carbazole]", "IC50": 97}, {"smiles": "O=C1NCc2c1c1c3ccccc3n3c1c1c2c2ccccc2n1CCC(O)C(O)CC3", "note": "(stereo not shown) [Cpd 21, 12,13-(3,4-dihydroxy-hexan-1,6-yl)-6,7,12,13-tetrahydro-5-oxo-5H-indolol[2,3-a]pyrrolo[3,4-c]carbazole]", "IC50": 12}, {"smiles": "O=C1NC(=O)c2c1c1c3cc(-c4ccncc4)ccc3n3c1c1c2c2ccccc2n1CC(O)CC3", "note": "(stereo not shown) [Cpd 33, 3-pyridin-4-yl-12,13-(2-hydroxy-butan-1,4-yl)-12,13-dihydro-5,7-dioxo-6H-indolo[2,3-a]pyrrolo[3,4-c]carbazole]", "IC50": 40}, {"smiles": "C/C1=C(\\C)Cn2c3ccccc3c3c4c(c5c6ccccc6n(c5c32)C1)CNC4=O", "note": "[Cpd 4, 12,13-(2,3-dimethyl-but-2-en-1,4-yl)-6,7,12,13-tetrahydro-5-oxo-5H-indolo[2,3-a]pyrrolo[3,4-c]carbazole]", "IC50": 72}, {"smiles": "O=C1NC(=O)c2c1c1c3ccccc3n3c1c1c2c2ccccc2n1CC(OC(=O)N1CCOCC1)C(O)C3", "note": "(stereo not shown) [Cpd 98, 12,13-[2-(morpholin-4-yl-carbonyloxy)-3-hydroxy-butan-1,4-yl]-12,13-dihydro-5,7-dioxo-6H-indolo[2,3-a]pyrrolo[3,4-c]carbazole]", "IC50": 108}, {"smiles": "O=C1NCc2c1c1c3ccccc3n3c1c1c2c2ccccc2n1CC(COC(=O)N1CCN(CCO)CC1)C3", "note": "(stereo not shown) [Cpd 164, 12,13-(2-{[4-(2-hydroxy-ethyl)piperazin-1-yl]carbonyloxymethyl}-propan-1,3-yl)-6,7,12,13-tetrahydro-5-oxo-5H-indolo[2,3-a]pyrrolo[3,4-c]carbazole]", "IC50": 377}, {"smiles": "O=C1NC(=O)c2c1c1c3ccccc3n3c1c1c2c2ccccc2n1CC(O)CCC3", "note": "(stereo not shown) [Cpd 8]", "IC50": 8}, {"smiles": "Cc1ncsc1/C=C/c1ccc2c(c1)c1c3c(c4c5ccccc5n5c4c1n2CC(CO)C5)CNC3=O", "note": "(stereo not shown) [Cpd 217, 3-[(2E)-2-(4-methyl-thiazol-5-yl)ethenyl]-12,13-(2-hydroxymethyl-propan-1,3-yl)-6,7,12,13-tetrahydro-5-oxo-5H-indolo[2,3-a]pyrrolo[3,4-c]carbazole]", "IC50": 592}]}]}
